Laboratory results taken from patent US7566528B2, “Method for the identification and/or validation of receptor tyrosine kinase inhibitors” (Esbatech AG, priority 2003, dated 2009).
“Also recorded” adds a separate entry of the source. Where a name gives a salt, the structure may show the parent alone.

Experiments:
[1] = biological target: T1, human receptor tyrosine kinase PDGFR-β (Homo sapiens, UniProt P09619); experiment: Yeast growth restoration assay, cells expressing PDGFR-β (OD 600 nm); format: cell-based; conditions: 50 μM in the yeast culture; OD 600 nm light scattering; FIG. 3
T1 construct: N-terminus of the cytoplasmic domains of c-Met (AA932-1366) and PDGFRβ (AA524-1067); myristoylation signal (membrane anchoring) (N); expressed in transfected cells; host or cells: yeast (S. cerevisiae preferred)
Text: (§1) Selection of specific inhibition of Receptor Tyrosine Kinase activity in yeast.

[2] = system: human receptor tyrosine kinase RET; experiment: Yeast growth restoration assay, cells expressing RET (OD 600 nm); format: cell-based; conditions: 50 μM in the yeast culture; OD 600 nm light scattering; FIG. 3
Text: as §1

T1 sequence (P09619 556-1099): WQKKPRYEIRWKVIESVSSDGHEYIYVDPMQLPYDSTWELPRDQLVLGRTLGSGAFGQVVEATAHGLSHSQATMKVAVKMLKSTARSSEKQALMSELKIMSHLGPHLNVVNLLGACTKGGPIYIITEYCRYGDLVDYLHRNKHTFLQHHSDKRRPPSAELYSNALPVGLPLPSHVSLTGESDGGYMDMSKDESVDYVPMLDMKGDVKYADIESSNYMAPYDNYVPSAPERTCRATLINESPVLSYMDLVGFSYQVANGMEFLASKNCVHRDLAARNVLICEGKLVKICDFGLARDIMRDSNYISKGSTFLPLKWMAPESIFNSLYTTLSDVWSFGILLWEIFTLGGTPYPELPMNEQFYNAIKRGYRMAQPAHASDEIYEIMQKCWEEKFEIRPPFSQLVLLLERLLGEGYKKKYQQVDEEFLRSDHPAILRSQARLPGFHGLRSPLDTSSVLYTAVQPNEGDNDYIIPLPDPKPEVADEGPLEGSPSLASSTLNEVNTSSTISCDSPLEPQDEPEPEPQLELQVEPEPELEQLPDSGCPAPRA

Cc1ccc(NC(=O)c2ccc(CN3CCN(C)CC3)cc2)cc1Nc1nccc(-c2cccnc2)n1 [imatinib mesylate]
restoration of growth of PDGFR-β-expressing yeast cells [1]: restore growth under selective conditions; also recorded: specifically restores growth
restoration of growth of RET-expressing yeast cells [2]: not growth of cells expressing RET
